Results reported in the Kinase Knowledgebase extract (Sharma et al. 2016).

Each molecule was assayed against CDK2 (human) (UniProt P24941) (assay: Enzyme Assay). Conditions: not given.
Molecule `Nc1nc(NC2CCN(S(=O)(=O)c3ccc(CCN4CCC(c5ccccc5)C4)nc3)CC2)sc1C(=O)c1c(F)cccc1F` (stereo unspecified) has a Ki of 1.8 nM.

Same assay, conditions: concentration not given here
Molecule `CCC/C=C/CC(=O)N1CCC(Nc2nc(N)c(C(=O)c3c(F)cccc3F)s2)CC1` has an inhibition of 49%. With `CCCCC(C)C(=O)N1CCC(Nc2nc(N)c(C(=O)c3c(F)cccc3F)s2)CC1` (stereo unspecified) the inhibition was -2%. For `CCOc1ccc(/C=C/C(=O)N2CCC(Nc3nc(N)c(C(=O)c4c(F)cccc4F)s3)CC2)cc1`, the inhibition was 34%. With `Nc1nc(NC2CCN(C(=O)c3ccccc3COC(=O)c3ccccc3)CC2)sc1C(=O)c1c(F)cccc1F` the inhibition was -9%. `CCN(CC)CCC(=O)N1CCC(Nc2nc(N)c(C(=O)c3c(F)cccc3F)s2)CC1` was tested, and the inhibition was 57%. `Nc1nc(NC2CCN(C(=O)c3ccc(F)cc3F)CC2)sc1C(=O)c1c(F)cccc1F` gave an inhibition of 67%. `Nc1nc(NC2CCN(C(=O)Cc3ccccn3)CC2)sc1C(=O)c1c(F)cccc1F` was tested, and the inhibition was 80%. Molecule `Cc1nc(C)c(C(=O)N2CCC(Nc3nc(N)c(C(=O)c4c(F)cccc4F)s3)CC2)s1` has an inhibition of 67%. With `Cc1cc(C)cc(CC(=O)N2CCC(Nc3nc(N)c(C(=O)c4c(F)cccc4F)s3)CC2)c1` the inhibition was 75%. `CC(CO)(CO)C(=O)N1CCC(Nc2nc(N)c(C(=O)c3c(F)cccc3F)s2)CC1` showed an inhibition of 17%. `Nc1nc(NC2CCN(C(=O)C(O)c3cc(F)ccc3F)CC2)sc1C(=O)c1c(F)cccc1F` (stereo unspecified) gave an inhibition of 57%. With `COc1ncccc1C(=O)N1CCC(Nc2nc(N)c(C(=O)c3c(F)cccc3F)s2)CC1` the inhibition was 40%. `COC(=O)CCC(=O)N1CCC(Nc2nc(N)c(C(=O)c3c(F)cccc3F)s2)CC1` showed an inhibition of 12%. In the case of `Nc1ccc(C(=O)NCC(=O)N2CCC(Nc3nc(N)c(C(=O)c4c(F)cccc4F)s3)CC2)cc1`, the inhibition is reported as 65%. `Nc1nc(NC2CCN(C(=O)COc3ccccc3)CC2)sc1C(=O)c1c(F)cccc1F` gave an inhibition of 59%. With `C/C=C/C(=O)N1CCC(Nc2nc(N)c(C(=O)c3c(F)cccc3F)s2)CC1` the inhibition was -9%. `Cc1ccc(C(=O)N2CCC(Nc3nc(N)c(C(=O)c4c(F)cccc4F)s3)CC2)cc1` gave an inhibition of 60%. `Cc1cc(C)c(C(=O)N2CCC(Nc3nc(N)c(C(=O)c4c(F)cccc4F)s3)CC2)cc1C` was tested, and the inhibition was 44%. `Nc1nc(NC2CCN(C(=O)Cc3c[nH]c4ccc(F)cc34)CC2)sc1C(=O)c1c(F)cccc1F` gave an inhibition of 66%. In the case of `CCCCCC(=O)N1CCC(Nc2nc(N)c(C(=O)c3c(F)cccc3F)s2)CC1`, the inhibition is reported as 36%. For `Nc1nc(NC2CCN(C(=O)Cc3ccc(O)c(F)c3)CC2)sc1C(=O)c1c(F)cccc1F`, the inhibition was 59%. In the case of `CC[C@H](C(=O)N1CCC(Nc2nc(N)c(C(=O)c3c(F)cccc3F)s2)CC1)c1ccccc1`, the inhibition is reported as 42%. Molecule `Cn1cccc1C(=O)N1CCC(Nc2nc(N)c(C(=O)c3c(F)cccc3F)s2)CC1` has an inhibition of 38%. For `Nc1nc(NC2CCN(C(=O)CCCCc3ccccc3)CC2)sc1C(=O)c1c(F)cccc1F`, the inhibition was 36%. `Nc1nc(NC2CCN(C(=O)C3(c4ccc(Cl)cc4)CC3)CC2)sc1C(=O)c1c(F)cccc1F` gave an inhibition of -1%. `CCCCOc1ccc(C(C)(C)CC(C)(C)C)cc1S(=O)(=O)N1CCC(Nc2nc(N)c(C(=O)c3c(F)cccc3F)s2)CC1` gave an inhibition of -28%. Molecule `CCOC(=O)CC(=O)N1CCC(Nc2nc(N)c(C(=O)c3c(F)cccc3F)s2)CC1` has an inhibition of -13%. In the case of `CC(=O)Nc1cccc(C(=O)N2CCC(Nc3nc(N)c(C(=O)c4c(F)cccc4F)s3)CC2)c1`, the inhibition is reported as 69%. `COC(=O)c1cccc(C(=O)N2CCC(Nc3nc(N)c(C(=O)c4c(F)cccc4F)s3)CC2)c1` gave an inhibition of 65%. `CC(=O)N1CSC[C@H]1C(=O)N1CCC(Nc2nc(N)c(C(=O)c3c(F)cccc3F)s2)CC1` was tested, and the inhibition was 20%. With `CC(C)C[C@H](O)C(=O)N1CCC(Nc2nc(N)c(C(=O)c3c(F)cccc3F)s2)CC1` the inhibition was 70%. In the case of `Nc1nc(NC2CCN(C(=O)C(O)c3ccccc3)CC2)sc1C(=O)c1c(F)cccc1F` (stereo unspecified), the inhibition is reported as 75%. `CC(C)CC(O)C(=O)N1CCC(Nc2nc(N)c(C(=O)c3c(F)cccc3F)s2)CC1` (stereo unspecified) showed an inhibition of 57%. `CCSCC(=O)N1CCC(Nc2nc(N)c(C(=O)c3c(F)cccc3F)s2)CC1` was tested, and the inhibition was 63%. For `COc1ccc(C(=O)N2CCC(Nc3nc(N)c(C(=O)c4c(F)cccc4F)s3)CC2)cc1Cl`, the inhibition was 47%.
